Data taken from patent US7495027B2, “3-aryl-4-hydroxyfuranone compounds and the human and animal health use thereof” (Wyeth, priority 2003, dated 2009).

Assays:
[1] = system: Trichostrongylus columbriformis; assay: In vivo efficacy against T. colubriformis in infected gerbils; conditions: gerbils infected with T. colubriformis, single oral dose of 50 mg/kg by gavage, worm counts four days post-treatment, % mortality as compared to negative control
Description: In Vivo Evaluation of the Efficacy of Test Compounds Against T. colubriformis
In this evaluation, gerbils are infected with Trichostrongylus columbriformis infective larvae at a concentration of approximately 800 L3/mL. Larvae for gerbil infections are cultured from feces from sheep previously infected with T. colubriformis. One week post infection, test compounds are administered by gavage as a single oral dose of 50 mg/kg of body weight. For each group of 3 gerbils, 10 mg of test compound are dissolved in 2 mL of PEG 400:DMSO (1:2 v/v) and each animal is administered the test solution at a rate of 0.1 mL/10 g of body weight. […] All animals are observed daily for morbidity and mortality. Four days post-treatment, all animals are weighed and necropsied. Worm counts are conducted with the use of stereoscopes and counters.

C. elegans = assay: Efficacy against nematodes (C. elegans motility rating); parameters: key: 0: no effect; 7: reduced movement in 24 h; 8: dead in 24 h; 9: dead in 4 h; conditions: observations at 4 h and 24 h postimmersion
How it was run: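 Mixed-stage C. elegans (~50 per well, L1 to adult) in M9 buffer exposed to test compound at 100 ppm, 150 ppm or 200 μM final. Motility of larvae and adults scored under dissecting microscope at 4 h and 24 h.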

| SMILES | Mortality [1] | Rating (C. elegans; dose 100 ppm) | Rating (C. elegans; dose 150 ppm) | Mortality ([1]; 50 mg/kg) |
| --- | --- | --- | --- | --- |
| O=C1OC(=Cc2ccc(Oc3ccccc3)cc2)C(O)=C1c1ccc(OC(F)(F)F)cc1 (mixture of isomers) [R=H; R1=4-OCF3—C6H4**; R2=4-phenoxy-C6H4] | 0.00% | 0 |  |  |
| N#Cc1ccc(C2=C(O)C(=Cc3ccc(Cl)s3)OC2=O)cc1 (mixture of isomers) | 20.60% | 9 |  |  |
| O=C1OC(=Cc2cc(C(F)(F)F)ccc2F)C(O)=C1c1ccc(OC(F)(F)F)cc1 (mixture of isomers) [R=H; R1=4-OCF3—C6H4**; R2=2-F-5-CF3—C6H3] | 29.50% | 9 |  |  |
| O=C1OC(=Cc2ccc(Cl)s2)C(O)=C1c1ccc(OC(F)(F)F)cc1 (mixture of isomers) | 26.10% | 9 |  |  |
| O=C1OC(=Cc2ccc(C(F)(F)F)c(F)c2)C(O)=C1c1ccc(OC(F)(F)F)cc1 (mixture of isomers) [R=H; R1=4-OCF3—C6H4**; R2=3-F-4-CF3—C6H3] | 44.20% | 9 |  |  |
| O=C1OC(=Cc2ccc(F)cc2)C(O)=C1c1cccc(Cl)c1 (mixture of isomers) [R=H; R1=3-Cl—C6H4**; R2=4-F—C6H4] | 3.00% | 9 |  |  |
| N#Cc1ccc(C=C2OC(=O)C(c3cccc(C#N)c3)=C2O)cc1 (mixture of isomers) [R=H; R1=3-CN—C6H4**; R2=4-CN—C6H4] | 25.50% | 9 |  |  |
| O=C1OC(=Cc2ccc(Cl)cc2Cl)C(O)=C1c1ccc(Cl)cc1 (mixture of isomers) [R=H; R1=4-Cl—C6H4**; R2=2,4-diCl—C6H4] | 91.40% | 9 |  |  |
| O=C1O/C(=C\c2cccc3ccccc23)C(O)=C1c1cc(Cl)cc(Cl)c1 [R=H; R1=3,5-diCl—C6H3; R2=1-naphthyl] | 0.00% |  | 9 |  |
| O=C1OC(=Cc2ccc(OC(F)F)cc2)C(O)=C1c1ccc(OC(F)(F)F)cc1 (mixture of isomers) [R=H; R1=4-OCF3—C6H4**; R2=4-OCHF2—C6H4] | 44.20% | 9 |  |  |
| O=C1OC(=Cc2ccc(-c3ccc(Cl)cc3)cc2)C(O)=C1c1ccc(F)cc1 (mixture of isomers) | 1.60% | 9 |  |  |
| O=C1O/C(=C\c2ccccc2C(F)(F)F)C(O)=C1c1ccc(-c2ccccc2)cc1 [R=H; R1=4-biphenyl; R2=2-CF3—C6H4] | 23.90% |  | 9 |  |
| O=C1OC(=Cc2ccc(C(F)(F)F)cc2)C(O)=C1c1ccc(F)cc1 (mixture of isomers) [R=H; R1=4-F—C6H4**; R2=4-CF3—C6H4] | 25.60% | 9 |  |  |
| O=C1O/C(=C\c2ccc(-c3ccc(Cl)c(Cl)c3)cc2)C(O)=C1c1ccc(Cl)c(Cl)c1 | 22.00% |  | 9 |  |
| O=C1O/C(=C\c2ccc(Cl)cc2)C(O)=C1c1ccc(-c2ccccc2)cc1 [R=H; R1=4-biphenyl; R2=4-Cl—C6H4] | 44.70% |  | 9 |  |
| O=C1OC(=Cc2ccc(Cl)c(Cl)c2)C(O)=C1c1ccc(Cl)cc1 (mixture of isomers) [R=H; R1=4-Cl—C6H4**; R2=3,4-diCl—C6H4] | 58.0% | 9 |  |  |
| N#Cc1ccc(C2=C(O)C(=Cc3ccc4c(c3)OC(F)(F)O4)OC2=O)cc1 (mixture of isomers) | 88.10% | 9 |  |  |
| N#Cc1ccc(C2=C(O)C(=Cc3ccc(-c4ccc(C#N)cc4)cc3)OC2=O)cc1 [R=H; R1=4-CN—C6H4*; R2=4-(4′-CN-biphenyl)] | 88.07% |  | 9 |  |
| O=C1O/C(=C\c2ccc(-c3ccccc3)cc2)C(O)=C1c1cccc2ccccc12 [R=H; R1=1-naphthyl; R2=4-biphenyl] | 18.50% |  | 9 |  |
| O=C1OC(=Cc2ccc(F)cc2)C(O)=C1c1cccc(C(F)(F)F)c1 (mixture of isomers) [R=H; R1=3-CF3—C6H4**; R2=4-F—C6H4] | 36.40% | 9 |  |  |
| N#Cc1ccc(C2=C(O)C(=Cc3ccc(OC(F)(F)C(F)F)cc3)OC2=O)cc1 (mixture of isomers) [R=H; R1=4-CN—C6H4**; R2=4-OCF2CHF2—C6H4] | 92.80% | 9 |  |  |

| SMILES | Mortality [1] | Rating (C. elegans; dose 100 ppm) | Rating (C. elegans; dose 150 ppm) | Mortality ([1]; 50 mg/kg) |
| --- | --- | --- | --- | --- |
| N#Cc1ccc(C2=C(O)C(=Cc3ccccc3C(F)(F)F)OC2=O)cc1 [R=H; R1=4-CN—C6H4; R2=2-CF3—C6H4] | 69.78% |  | 7 |  |
| N#Cc1ccc(C=C2OC(=O)C(c3ccc(-c4ccc(Cl)cc4)cc3)=C2O)cc1 (mixture of isomers) | 0.00% | 9 |  |  |
| O=C1O/C(=C\c2ccc(-c3ccccc3)cc2)C(O)=C1c1ccc(Cl)c(Cl)c1 [R=H; R1=3,4-diCl—C6H3; R2=4-biphenyl] | 23.00% |  | 9 |  |
| O=C1OC(=Cc2ccc(C(F)(F)F)cc2)C(O)=C1c1cccc(C(F)(F)F)c1 (mixture of isomers) [R=H; R1=3-CF3—C6H4**; R2=4-CF3—C6H4] | 0.00% | 9 |  |  |
| N#Cc1ccc(C=C2OC(=O)C(c3ccc(-c4ccc(C#N)cc4)cc3)=C2O)cc1 (mixture of isomers) | 29.80% | 9 |  |  |
| O=C1OC(=Cc2ccc(F)cc2)C(O)=C1c1ccc(F)cc1 (mixture of isomers) [R=H; R1=4-F—C6H4**; R2=4-F—C6H4] | 0.00% | 9 |  |  |
| O=C1O/C(=C\c2cccc(C(F)(F)F)c2)C(O)=C1c1cccc(C(F)(F)F)c1 [R=H; R1=3-CF3—C6H4; R2=3-CF3—C6H4] | 10.10% |  | 9 |  |
| N#Cc1cccc(C2=C(O)C(=Cc3ccc(-c4ccc(Cl)cc4)cc3)OC2=O)c1 (mixture of isomers) | 0.00% | 9 |  |  |
| N#Cc1ccc(-c2ccc(/C=C3\OC(=O)C(c4ccc(Cl)cc4)=C3O)cc2)cc1 [R=H; R1=4-Cl—C6H4*; R2=4-(4′-CN-biphenyl)] |  |  | 9 | 23.80% |
| O=C1OC(=Cc2ccc(Cl)cc2)C(O)=C1c1ccc(F)cc1 (mixture of isomers) [R=H; R1=4-F—C6H4**; R2=4-Cl—C6H4] | 0.00% | 9 |  |  |
| N#Cc1ccc(-c2ccc(C=C3OC(=O)C(c4cccc(C(F)(F)F)c4)=C3O)cc2)cc1 (mixture of isomers) | 47.50% | 9 |  |  |
| O=C1O/C(=C\c2ccc(-c3ccccc3)cc2)C(O)=C1c1ccccc1C(F)(F)F [R=H; R1=2-CF3—C6H4; R2=4-biphenyl] | 20.20% |  | 8 |  |
| O=C1OC(=Cc2ccc3ccccc3c2)C(O)=C1c1cccc2ccccc12 [R=H; R1=1-naphthyl; R2=2-naphthyl] | 28.90% |  | 9 |  |
| O=C1OC(=Cc2ccc(C(F)(F)F)cc2)C(O)=C1c1ccc(-c2ccccc2)cc1 [R=H; R1=4-biphenyl; R2=4-CF3—C6H4] | 0.00% |  | 9 |  |
| Cc1ccccc1-c1ccc(C=C2OC(=O)C(c3cccc(Cl)c3)=C2O)cc1C | 10.80% |  | 9 |  |
| N#Cc1ccc(C=C2OC(=O)C(c3cccc(C(F)(F)F)c3)=C2O)cc1 (mixture of isomers) [R=H; R1=3-CF3—C6H4**; R2=4-CN—C6H4] | 0.00% | 9 |  |  |
| N#Cc1ccc(C=C2OC(=O)C(c3cccc(Cl)c3)=C2O)cc1 (mixture of isomers) [R=H; R1=3-Cl—C6H4**; R2=4-CN—C6H4] | 43.70% | 9 |  |  |
| O=C1OC(=Cc2ccc3ccccc3c2)C(O)=C1c1ccc(Cl)cc1 [R=H; R1=4-Cl—C6H4; R2=2-naphthyl] | 52.80% |  | 9 |  |
| O=C1OC(=Cc2ccc(C(F)(F)F)cc2)C(O)=C1c1cccc(Cl)c1 (mixture of isomers) [R=H; R1=3-Cl—C6H4**; R2=4-CF3—C6H4] | 57.90% | 9 |  |  |
| O=C1OC(=Cc2cc(Cl)cc(Cl)c2)C(O)=C1c1ccc(OC(F)(F)F)cc1 (mixture of isomers) [R=H; R1=4-OCF3—C6H4**; R2=3,5-diCl—C6H3] | 33.40% | 9 |  |  |
| O=C1O/C(=C\c2ccc3ccccc3c2)C(O)=C1c1cccc(C(F)(F)F)c1 [R=H; R1=3-CF3—C6H4; R2=2-naphthyl] | 35.20% |  | 9 |  |
